Where only a bound is given, the exact number is not on record here.

Series [1] deals with Pseudomonas aeruginosa. In words: Antibacterial activity against Pseudomonas aeruginosa 262-101856 assessed as reduction in bacterial growth by measuring doxycycline MIC at 8 ug/ml incubated for 18 hrs in presence of doxycycline by broth microdilution assay (reference value: 1024 ug/ml). The series is classed as functional. Particulars: dose 8 µg/ml.
The subject of series [2] is Pseudomonas aeruginosa. In words: Antibacterial activity against Pseudomonas aeruginosa 264-101354 assessed as reduction in bacterial growth by measuring doxycycline MIC at 4 ug/ml incubated for 18 hrs in presence of doxycycline by broth microdilution assay (reference value: 64 ug/ml). The series is classed as functional. Particulars: dose 4 µg/ml.
For series [3], the system named is Pseudomonas aeruginosa. In words: Antibacterial activity against Pseudomonas aeruginosa 264-101354 assessed as reduction in bacterial growth by measuring chloramphenicol MIC at 4 ug/ml incubated for 18 hrs in presence of chloramphenicol by broth microdilution assay (reference value: 4096 ug/ml). Particulars: dose 4 µg/ml. The series is classed as functional.
Series [4] deals with Pseudomonas aeruginosa. Put plainly: Antibacterial activity against Pseudomonas aeruginosa 101243 assessed as fractional inhibitory concentration incubated for 18 hrs in presence of minocycline by broth microdilution assay. The series is classed as functional.
Series [5] in a line: Toxicity in Galleria mellonella larvae assessed as larval survival at 200 mg/kg measured after 96 hrs. The series is classed as organism-based. Particulars: in vivo.
Series [6] deals with Pseudomonas aeruginosa. Put plainly: Antibacterial activity against Pseudomonas aeruginosa 91433 assessed as potentiation of doxycycline-induced antibacterial activity by measuring doxycycline MIC at 9.8 uM incubated for 18 hrs in presence of doxycycline by broth microdilution assay (reference value: 32 ug/ml). The series is classed as functional.
The test system of series [7] is Pseudomonas aeruginosa. Put plainly: Potentiation of chloramphenicol-induced antibacterial activity against Pseudomonas aeruginosa 260-97103 assessed as fold change in chloramphenicol MIC at 9.8 uM incubated for 18 hrs in presence of chloramphenicol by broth microdilution assay relative to control. Format: functional.
Another series has as its system Escherichia coli. In words: Potentiation of doxycycline-induced antibacterial activity against Escherichia coli ATCC 25922 assessed as fold change in doxycycline MIC at 9.8 uM incubated for 18 hrs in presence of doxycycline by broth microdilution assay relative to control. The series is classed as functional.
The subject of series [8] is Pseudomonas aeruginosa. In words: Antibacterial activity against Pseudomonas aeruginosa 262-101856 assessed as potentiation of doxycycline-induced antibacterial activity by measuring doxycycline MIC at 9.8 uM incubated for 18 hrs in presence of doxycycline by broth microdilution assay (reference value: 1024 ug/ml). Format: functional.
The subject of series [9] is Pseudomonas aeruginosa. Put plainly: Antibacterial activity against Pseudomonas aeruginosa 260-97103 infected in Galleria mellonella larvae assessed as survival of larvae at 100 mg/kg treated at 3 hrs post-infection in presence of chloramphenicol and measured after 18 hrs relative to control. The series is classed as functional.
Series [10] deals with Pseudomonas aeruginosa. In words: Antibacterial activity against Pseudomonas aeruginosa 260-97103 assessed as fractional inhibitory concentration incubated for 18 hrs in presence of rifampicin by broth microdilution assay. Format: functional.
Series [11] has as its system Pseudomonas aeruginosa. Put plainly: Potentiation of chloramphenicol-induced antibacterial activity against Pseudomonas aeruginosa PAO750 harboring MexAB-OprM, MexCD-OprJ, MexEF-OprN, Mex JK, MexXY and the OM protein OpmH deletion mutant assessed as fold change in chloramphenicol MIC at <=9.8 uM incubated for 18 hrs in presence of chloramphenicol by broth microdilution assay. Format: functional. Particulars: dose microM <=9.8.

Series [12] has as its system Pseudomonas aeruginosa. In words: Antibacterial activity against Pseudomonas aeruginosa 260-97103 assessed as fractional inhibitory concentration incubated for 18 hrs in presence of minocycline by broth microdilution assay. The series is classed as functional.
Series [13] relates to Pseudomonas aeruginosa. Put plainly: Antibacterial activity against Pseudomonas aeruginosa 260-97103 infected in Galleria mellonella larvae assessed as survival of larvae at 75 mg/kg treated at 3 hrs post-infection in presence of doxycycline and measured after 24 hrs relative to control. Format: functional.
In another series the test system is Acinetobacter baumannii. In words: Potentiation of doxycycline-induced antibacterial activity against Acinetobacter baumannii ATCC 17978 assessed as fold change in doxycycline MIC at 9.8 uM incubated for 18 hrs in presence of doxycycline by broth microdilution assay relative to control. Format: functional.
For series [14], the system named is Pseudomonas aeruginosa. In words: Antibacterial activity against Pseudomonas aeruginosa 100036 assessed as potentiation of chloramphenicol-induced antibacterial activity by measuring chloramphenicol MIC at 9.8 uM incubated for 18 hrs in presence of chloramphenicol by broth microdilution assay (reference value: 1024 ug/ml). Format: functional.
The subject of series [15] is Pseudomonas aeruginosa. Put plainly: Potentiation of chloramphenicol-induced antibacterial activity against Pseudomonas aeruginosa 114228 assessed as fold change in chloramphenicol MIC at 9.8 uM incubated for 18 hrs in presence of chloramphenicol by broth microdilution assay relative to control. The series is classed as functional.
Series [16] relates to Pseudomonas aeruginosa. In words: Antibacterial activity against Pseudomonas aeruginosa 264-101354 assessed as potentiation of chloramphenicol-induced antibacterial activity by measuring chloramphenicol MIC at 9.8 uM incubated for 18 hrs in presence of chloramphenicol by broth microdilution assay (reference value: 4096 ug/ml). Format: functional.
The test system of series [17] is Pseudomonas aeruginosa. Put plainly: Antibacterial activity against Pseudomonas aeruginosa 260-97103 assessed as potentiation of doxycycline-induced antibacterial activity by measuring doxycycline MIC at 9.8 uM incubated for 18 hrs in presence of doxycycline by broth microdilution assay (reference value: 16 ug/ml). Format: functional.
For series [18], the system named is Pseudomonas aeruginosa. Put plainly: Antibacterial activity against Pseudomonas aeruginosa 91433 assessed as fractional inhibitory concentration incubated for 18 hrs in presence of rifampicin by broth microdilution assay. The series is classed as functional.
For series [19], the system named is Pseudomonas aeruginosa. Put plainly: Antibacterial activity against Pseudomonas aeruginosa 259-96918 assessed as fractional inhibitory concentration index incubated for 18 hrs in presence of minocycline by broth microdilution assay. Format: functional.
Series [20] has as its system Pseudomonas aeruginosa. In words: Antibacterial activity against Pseudomonas aeruginosa 259-96918 assessed as fractional inhibitory concentration incubated for 18 hrs in presence of minocycline by broth microdilution assay. Format: functional.
The subject of series [21] is Pseudomonas aeruginosa. Put plainly: Antibacterial activity against Pseudomonas aeruginosa 259-96918 assessed as fractional inhibitory concentration incubated for 18 hrs in presence of tigecycline by broth microdilution assay. Format: functional.
For series [22], the system named is Pseudomonas aeruginosa. Put plainly: Potentiation of doxycycline-induced antibacterial activity against Pseudomonas aeruginosa 101243 assessed as fold change in doxycycline MIC at 7.6 uM incubated for 18 hrs in presence of doxycycline by broth microdilution assay relative to control. The series is classed as functional.
The next series relates to Enterobacter cloacae. Put plainly: Potentiation of doxycycline-induced antibacterial activity against Enterobacter cloacae ATCC 117029 assessed as fold change in doxycycline MIC at 7.6 uM incubated for 18 hrs in presence of doxycycline by broth microdilution assay relative to control. Format: functional.
The subject of series [23] is Pseudomonas aeruginosa. Put plainly: Antibacterial activity against Pseudomonas aeruginosa 101885 assessed as potentiation of chloramphenicol-induced antibacterial activity by measuring chloramphenicol MIC at 7.6 uM incubated for 18 hrs in presence of chloramphenicol by broth microdilution assay (reference value: 512 ug/ml). Format: functional.
In series [24] the test system is Pseudomonas aeruginosa. In words: Antibacterial activity against Pseudomonas aeruginosa 91433 assessed as potentiation of chloramphenicol-induced antibacterial activity by measuring chloramphenicol MIC at 7.6 uM incubated for 18 hrs in presence of chloramphenicol by broth microdilution assay (reference value: 8 ug/ml). Format: functional.
Series [25] deals with Pseudomonas aeruginosa. In words: Antibacterial activity against Pseudomonas aeruginosa 100036 assessed as potentiation of doxycycline-induced antibacterial activity by measuring doxycycline MIC at 7.6 uM incubated for 18 hrs in presence of doxycycline by broth microdilution assay (reference value: 64 ug/ml). Format: functional.
Series [26] concerns Pseudomonas aeruginosa. In words: Antibacterial activity against Pseudomonas aeruginosa 91433 assessed as potentiation of doxycycline-induced antibacterial activity by measuring doxycycline MIC at 7.6 uM incubated for 18 hrs in presence of doxycycline by broth microdilution assay (reference value: 32 ug/ml). The series is classed as functional.

With `NC[C@H]1O[C@H](O[C@H]2[C@H](O)[C@@H](O[C@H]3O[C@H](CO)[C@@H](O)[C@H](N)[C@H]3O)[C@H](N)C[C@@H]2N)[C@H](N)C[C@@H]1O` [TOBRAMYCIN], in the series on Pseudomonas aeruginosa [1], the MIC was 1020 µg/mL.

Turning to `CO[C@H]1/C=C/O[C@@]2(C)Oc3c(C)c(O)c4c(O)c(c(/C=N/N5CCN(C)CC5)c(O)c4c3C2=O)NC(=O)/C(C)=C\C=C\[C@H](C)[C@H](O)[C@@H](C)[C@@H](O)[C@@H](C)[C@H](OC(C)=O)[C@@H]1C` [RIFAMPIN], the MIC with Pseudomonas aeruginosa [2] was 32 µg/mL; with Pseudomonas aeruginosa [3] it was 4100 µg/mL.

For the compound `CO[C@H]1/C=C/O[C@@]2(C)Oc3c(C)c(O)c4c(O)c(c(/C=N/N5CCN(Cc6cn(CCCCCCO[C@@H]7[C@@H](O[C@H]8O[C@H](CO)[C@@H](O)[C@H](N)[C@H]8O)[C@H](N)C[C@H](N)[C@H]7O[C@H]7O[C@H](CN)[C@@H](O)C[C@H]7N)nn6)CC5)c(O)c4c3C2=O)NC(=O)/C(C)=C\C=C\[C@H](C)[C@H](O)[C@@H](C)[C@@H](O)[C@@H](C)[C@H](OC(C)=O)[C@@H]1C.Cl.Cl.Cl.Cl.Cl`, the FIC is on record as below 0.063 in the series with Pseudomonas aeruginosa [4]; below 0.125 with Pseudomonas aeruginosa [10]; below 0.125 with Pseudomonas aeruginosa [12]; below 0.125 with Pseudomonas aeruginosa [18]; below 0.125 with Pseudomonas aeruginosa [20]; below 0.125 in the series with Pseudomonas aeruginosa [21]. The survival at 96 h in series [5] is 97%. Besides, the MIC in the series with Pseudomonas aeruginosa [6] worked out at 4 µg/mL; with Pseudomonas aeruginosa [8], 8 µg/mL; with Pseudomonas aeruginosa [14], 4 µg/mL; in the series with Pseudomonas aeruginosa [16] it was 128 µg/mL; with Pseudomonas aeruginosa [17] it was 0.125 µg/mL. Besides, the “fold change (FC)” value with Pseudomonas aeruginosa [7] was determined as 4; with Escherichia coli, 0; with Pseudomonas aeruginosa [11], 4; in the series on Acinetobacter baumannii it was 0; in the series on Pseudomonas aeruginosa [15], 4. Further, in the series on Pseudomonas aeruginosa [9], the survival at 100 mg/kg came to 72%. Besides, in the series on Pseudomonas aeruginosa [13], the survival at 75 mg/kg is 55%. Also, the “fractional inhibitory concentration index (FICI)” value in the series with Pseudomonas aeruginosa [19] is recorded as below 0.16.

In the case of `CO[C@H]1/C=C/O[C@@]2(C)Oc3c(C)c(O)c4c(O)c(c(/C=N/N5CCN(Cc6cn(CCCCCCCCCCCCO[C@@H]7[C@@H](O[C@H]8O[C@H](CO)[C@@H](O)[C@H](N)[C@H]8O)[C@H](N)C[C@H](N)[C@H]7O[C@H]7O[C@H](CN)[C@@H](O)C[C@H]7N)nn6)CC5)c(O)c4c3C2=O)NC(=O)/C(C)=C\C=C\[C@H](C)[C@H](O)[C@@H](C)[C@@H](O)[C@@H](C)[C@H](OC(C)=O)[C@@H]1C.O=C(O)C(F)(F)F.O=C(O)C(F)(F)F.O=C(O)C(F)(F)F.O=C(O)C(F)(F)F.O=C(O)C(F)(F)F`, the “fold change (FC)” value in the series on Pseudomonas aeruginosa [22] is reported as 4; with Enterobacter cloacae, 0. For the same compound, the MIC with Pseudomonas aeruginosa [23] was 4 µg/mL; in the series on Pseudomonas aeruginosa [24], 1 µg/mL; in the series on Pseudomonas aeruginosa [25], 0.5 µg/mL; with Pseudomonas aeruginosa [26], 0.25 µg/mL.

The values are drawn from ChEMBL document CHEMBL4715829, “Heterodimeric Rifampicin-Tobramycin conjugates break intrinsic resistance of Pseudomonas aeruginosa to doxycycline and chloramphenicol in vitro and in a Galleria mellonella in vivo model” (Eur J Med Chem, 2019).
